Structures are written as SMILES. Where a name gives a salt, the structure may show the parent alone.

The melting point is the temperature of the solid-liquid transition. By Ki is commonly meant a dissociation constant, usually derived from enzyme kinetics or from competition with a known ligand.

The target in data set [1] is T1, 5-HT1A receptors (Rattus norvegicus, UniProt P19327).
T1 construct: 5-HT1A receptors in hippocampus membranes of rats; from tissue; host or cells: rat hippocampus membranes
T1 sequence (P19327 1-422): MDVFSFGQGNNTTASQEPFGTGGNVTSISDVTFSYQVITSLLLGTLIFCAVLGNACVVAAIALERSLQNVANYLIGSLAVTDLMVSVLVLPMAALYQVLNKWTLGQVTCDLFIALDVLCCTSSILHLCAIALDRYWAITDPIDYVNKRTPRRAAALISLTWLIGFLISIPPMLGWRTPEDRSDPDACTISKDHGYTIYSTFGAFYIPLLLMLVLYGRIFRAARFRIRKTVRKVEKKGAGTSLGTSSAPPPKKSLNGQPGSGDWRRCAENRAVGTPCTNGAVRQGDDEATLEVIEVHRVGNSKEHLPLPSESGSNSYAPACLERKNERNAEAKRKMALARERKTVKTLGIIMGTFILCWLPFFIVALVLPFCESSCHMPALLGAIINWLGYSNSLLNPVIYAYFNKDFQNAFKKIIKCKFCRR
In words: Affinity to the 5-HT1A receptor: [3H]-8-OH-DPAT binding in hippocampus membranes. The note with it: displacement of [3H]-8-OH-DPAT, hippocampus membranes of rats; Ki calculated from IC50. The method, then: 1. Affinity to the 5-HT1A Receptor
(Dompert et al., Naunyn-Schmiedeberg's Arch. Pharmacol. 1985, 328, 467-470).
In this test, binding of [^3H]-8-OH-DPAT to 5-HT1A receptors in hippocampus membranes of rats is measured.
In the binding test, IC50 values are determined which state at which concentration of test substance 50% of bound radio ligand is displaced. Taking into account the dissociation constants and the concentration of radio ligand, this is used to calculate the inhibition constant Ki.

`O=C1c2ccccc2S(=O)(=O)N1CCCCNC[C@H]1CCc2cc(O)ccc2O1` (as salt: hydrochloride) [Example 2, 2-[4-({[(2R)-6-Hydroxy-3,4-dihydro-2H-chromen-2-yl]methyl}amino)butyl]-1,2-benzisothiazol-3(2H)-one 1,1-dioxide hydrochloride] registered a melting point of 220 to 222 °C.
As to `COc1cc2c(cc1O)O[C@@H](CNCCCCN1C(=O)c3ccccc3S1(=O)=O)CC2` [Example 1, (R)-(−)-2-(4-{[(7-Hydroxy-6-methoxy-3,4-dihydro-2H-chromen-2-yl)methyl]-amino}butyl)-1,2-benzisothiazol-3(2H)-one 1,1-dioxide hydrochloride], the inhibition constant (Ki) in data set [1] is 3.15 nM.
Take `O=C1c2ccccc2S(=O)(=O)N1CCCCNC[C@H]1CCc2cc(O)ccc2O1` [Example 2, 2-[4-({[(2R)-6-Hydroxy-3,4-dihydro-2H-chromen-2-yl]methyl}amino)butyl]-1,2-benzisothiazol-3(2H)-one 1,1-dioxide hydrochloride]: the Ki in data set [1] was 1.93 nM.

Source of the values: patent US6919360B2, “Benzisothiazolyl-substituted aminomethyl chromanes for treating diseases of the central nervous system” (Bayer HealthCare AG, priority 2001, dated 2005).
